We go through 57 compounds from patent US20230123334A1, “AMINO LIPID COMPOUND, PREPARATION METHOD THEREFOR, AND APPLICATION THEREOF” (SHENZHEN SHENXIN BIOTECHNOLOGY CO., LTD., priority 2020, published 2023).

The assay relates to HEK293 cells. The assay is described as follows: Preliminary screening as DNA vectors, GFP transfection of HEK293 cells. It counts as cell-based. The settings on record: amino lipid/DOPE liposome with 75 ng plasmid DNA (psin-EGFP-IRES-Puro); number of GFP-expressing cells divided by total nuclei (Hoechst). On the procedure:
Cell line: HEK293 cells (ATCC CRL-1573™)
Medium: DMEM supplemented with 10% fetal bovine serum (Invitrogen)
Mode of screening: cell transfection on 96-well plates
Detection (readout): percentage of the number of GFP fluorescent cells relative to the total number of cells (the total number of cells was measured using nucleus dye Hoechst—see FIG. 2). Lipofectamine2000 (Invitrogen) was used as positive control, according to the manufacturer's instructions.
Method: an 8-channel pipette was used for sample addition. The contents shown were for a single well of a 96-well flat plate.
1. The compound (0.01 mmol) prepared in Example 1 was dissolved in 1 mL of anhydrous ethanol. After ultrasonically dissolved, 10 μL of the resultant amino lipid solution in ethanol was taken and mixed with 5 μL of DOPE solution in ethanol (0.01 m), and then to the obtained mixture was added 35 μL of 0.2M sodium acetate buffer (pH 5.6), and 50 μL of liposome solution was prepared by vortex at a constant rotating speed for 30 s. 4 μL was taken from the 50 μL liposome solution and added to 46 μL of 0.02M sodium acetate buffer (pH 5.6), and the final liposome solution was formed by vortex at a constant rotating speed for 30 s. 5 μL was taken from the final liposome solution and mixed with 75 ng plasmid DNA (psin-EGFP-IRES-Puro, Clontech) dissolved in 5 μL of 0.02 M sodium acetate buffer, and was allowed to stay at room temperature for 30 min to form a lipid/DNA transfection complex.
2. 10 μL of the lipid/DNA transfection complex was incubated at room temperature for 30 min, followed by addition of 90 μL of fresh resuspended cells (3-5×10^4 cells) and mixing with a pipette. 100 μL of cells+lipid/DNA complex was transferred to separate wells of a 96-well culture plate immediately, and placed in an incubator containing 5% CO2 at 37° C.
3. Hoechst33258 (Invitrogen) was added at a final concentration of 0.2 μg/mL to the cells 20 to 24 hours after initial cell transfection, and cultured in darkness at 37° C. for 15 min. Afterwards, the cells were washed once with a PBS solution, and then added with medium for culture for 20 to 24 h.
4. The cells were placed in a high-throughput confocal microscope (Molecular Devices ImageXpress), and four visual fields of the image of the cells were captured for each well, and images at three laser wavelengths were captured for each sample: bright field images of cells (FIG. 2(a) and FIG. 2(b)), Hoechst-staining images showing total nuclei (FIG. 2(c) and FIG. 2(d)) and GFP images showing success in transfection with the plasmid DNA and the expression of GFP (FIG. 2(e) and FIG. 2(f)). MetaXpress software was used to separately count the cells in the Hoechst-staining images and GFP images, and then the number of cells expressing GFP was divided by the total number of nuclei to give the absolute cell transfection efficiency. The absolute transfection efficiency was calculated as follows: […]
For the compound `CCCCCCCCCCSc1nc(NCCN(C)C)nc(SCCCCCC)n1` [S6S10 D1], the “Absolute DNA transfection efficiency in HEK293 cells” value (shortened to “Absolute DNA transfection efficiency”) is reported as 3.2%. For the compound `CCCCCCCCCCSc1nc(NCCN2CCOCC2)nc(SCCCCCC)n1` [S6S10 D2], the “Absolute DNA transfection efficiency” value was 8.3%. Then `CCCCCCCCCCSc1nc(NCCN2CCCC2)nc(SCCCCCC)n1` [S6S10 D3], with 4.4%.

For `CCCCCCCCCCSc1nc(NCCN2CCCCC2)nc(SCCCCCC)n1` [S6S10 D4], the “Absolute DNA transfection efficiency” value was found to be 4.5%. As to `CCCCCCCCCCSc1nc(NCCN2CCN(C)CC2)nc(SCCCCCC)n1` [S6S10 D5], the “Absolute DNA transfection efficiency” value is 12.4%. `CCCCCCCCCCSc1nc(NCCCN(C)C)nc(SCCCCCC)n1` [S6S10 D6]: the “Absolute DNA transfection efficiency” value came to 20.9%. `CCCCCCCCCCSc1nc(NCCN(CC)CC)nc(SCCCCCC)n1` [S6S10 D7]: the “Absolute DNA transfection efficiency” value came to 7.7%. With `CCCCCCCCCCSc1nc(NCCCN2CCOCC2)nc(SCCCCCC)n1` [S6S10 D8] the figure was 0.0%; with `CCCCCCCCCCSc1nc(NCCCN2CCN(C)CC2)nc(SCCCCCC)n1` [S6S10 D9], 7.9%. For `CCCCCCCCCCSc1nc(NCC2CCN(C)CC2)nc(SCCCCCC)n1` [S6S10 D10], the “Absolute DNA transfection efficiency” value is given as 14.9%. As for `CCCCCCCCCCCSc1nc(NCCN(C)C)nc(SCCCCCC)n1` [S6S11 D1], the “Absolute DNA transfection efficiency” value is 6.0%. Regarding `CCCCCCCCCCCSc1nc(NCCN2CCOCC2)nc(SCCCCCC)n1` [S6S11 D2], the “Absolute DNA transfection efficiency” value came to 18.7%.

Regarding `CCCCCCCCCCCSc1nc(NCCN2CCCC2)nc(SCCCCCC)n1` [S6S11 D3], the “Absolute DNA transfection efficiency” value came out at 12.4%. With `CCCCCCCCCCCSc1nc(NCCN2CCCCC2)nc(SCCCCCC)n1` [S6S11 D4] the figure was 6.2%. With `CCCCCCCCCCCSc1nc(NCCN2CCN(C)CC2)nc(SCCCCCC)n1` [S6S11 D5], the “Absolute DNA transfection efficiency” value is 32.7%. With `CCCCCCCCCCCSc1nc(NCCCN(C)C)nc(SCCCCCC)n1` [S6S11 D6] the figure was 32.1%. With `CCCCCCCCCCCSc1nc(NCCN(CC)CC)nc(SCCCCCC)n1` [S6S11 D7] the figure was 10.1%. With `CCCCCCCCCCCSc1nc(NCCCN2CCOCC2)nc(SCCCCCC)n1` [S6S11 D8] the figure was 4.5%. For the compound `CCCCCCCCCCCSc1nc(NCCCN2CCN(C)CC2)nc(SCCCCCC)n1` [S6S11 D9], the “Absolute DNA transfection efficiency” value was 16.8%. With `CCCCCCCCCCCSc1nc(NCC2CCN(C)CC2)nc(SCCCCCC)n1` [S6S11 D10], the “Absolute DNA transfection efficiency” value was 38.1%.

For the compound `CCCCCCCCCCCCSc1nc(NCCN(C)C)nc(SCCCCCC)n1` [S6S12 D1], the “Absolute DNA transfection efficiency” value is given as 6.3%.

Take `CCCCCCCCCCCCSc1nc(NCCN2CCOCC2)nc(SCCCCCC)n1` [S6S12 D2]: the “Absolute DNA transfection efficiency” value stood at 5.0%.

Turning to `CCCCCCCCCCCCSc1nc(NCCN2CCCC2)nc(SCCCCCC)n1` [S6S12 D3], the “Absolute DNA transfection efficiency” value worked out at 4.3%. In the case of `CCCCCCCCCCCCSc1nc(NCCN2CCCCC2)nc(SCCCCCC)n1` [S6S12 D4], the “Absolute DNA transfection efficiency” value is 3.0%. With `CCCCCCCCCCCCSc1nc(NCCN2CCN(C)CC2)nc(SCCCCCC)n1` [S6S12 D5] the figure was 28.8%; with `CCCCCCCCCCCCSc1nc(NCCCN(C)C)nc(SCCCCCC)n1` [S6S12 D6], 13.6%. With `CCCCCCCCCCCCSc1nc(NCCN(CC)CC)nc(SCCCCCC)n1` [S6S12 D7] the figure was 6.6%; with `CCCCCCCCCCCCSc1nc(NCCCN2CCOCC2)nc(SCCCCCC)n1` [S6S12 D8], 7.5%.

In the case of `CCCCCCCCCCCCSc1nc(NCCCN2CCN(C)CC2)nc(SCCCCCC)n1` [S6S12 D9], the “Absolute DNA transfection efficiency” value worked out at 9.4%.

Consider `CCCCCCCCCCCCSc1nc(NCC2CCN(C)CC2)nc(SCCCCCC)n1` [S6S12 D10], for which the “Absolute DNA transfection efficiency” value is given as 24.4%. Then `CCCCCCCCCCCCCCSc1nc(NCCN(C)C)nc(SCCCCCC)n1` [S6S14 D1], with 8.3%; and `CCCCCCCCCCCCCCSc1nc(NCCN2CCOCC2)nc(SCCCCCC)n1` [S6S14 D2], with 11.1%; and `CCCCCCCCCCCCCCSc1nc(NCCN2CCCC2)nc(SCCCCCC)n1` [S6S14 D3], with 9.2%. As to `CCCCCCCCCCCCCCSc1nc(NCCN2CCCCC2)nc(SCCCCCC)n1` [S6S14 D4], the “Absolute DNA transfection efficiency” value turned out to be 12.0%. With `CCCCCCCCCCCCCCSc1nc(NCCN2CCN(C)CC2)nc(SCCCCCC)n1` [S6S14 D5] the figure was 18.6%; with `CCCCCCCCCCCCCCSc1nc(NCCCN(C)C)nc(SCCCCCC)n1` [S6S14 D6], 21.9%. With `CCCCCCCCCCCCCCSc1nc(NCCN(CC)CC)nc(SCCCCCC)n1` [S6S14 D7] the figure was 4.7%; with `CCCCCCCCCCCCCCSc1nc(NCCCN2CCOCC2)nc(SCCCCCC)n1` [S6S14 D8], 2.3%.

In the case of `CCCCCCCCCCCCCCSc1nc(NCCCN2CCN(C)CC2)nc(SCCCCCC)n1` [S6S14 D9], the “Absolute DNA transfection efficiency” value is given as 4.1%. `CCCCCCCCCCCCCCSc1nc(NCC2CCN(C)CC2)nc(SCCCCCC)n1` [S6S14 D10]: the “Absolute DNA transfection efficiency” value was determined as 53.3%.

For the compound `CCCCCCCCCCCCCCCSc1nc(NCCN(C)C)nc(SCCCCCC)n1` [S6S15 D1], the “Absolute DNA transfection efficiency” value turned out to be 5.5%. `CCCCCCCCCCCCCCCSc1nc(NCCN2CCOCC2)nc(SCCCCCC)n1` [S6S15 D2]: the “Absolute DNA transfection efficiency” value is on record as 8.4%. With `CCCCCCCCCCCCCCCSc1nc(NCCN2CCCC2)nc(SCCCCCC)n1` [S6S15 D3] the figure was 14.5%; with `CCCCCCCCCCCCCCCSc1nc(NCCN2CCCCC2)nc(SCCCCCC)n1` [S6S15 D4], 7.9%; with `CCCCCCCCCCCCCCCSc1nc(NCCN2CCN(C)CC2)nc(SCCCCCC)n1` [S6S15 D5], 13.7%. For the compound `CCCCCCCCCCCCCCCSc1nc(NCCCN(C)C)nc(SCCCCCC)n1` [S6S15 D6], the “Absolute DNA transfection efficiency” value came out at 36.4%. With `CCCCCCCCCCCCCCCSc1nc(NCCN(CC)CC)nc(SCCCCCC)n1` [S6S15 D7] the figure was 3.3%. Then `CCCCCCCCCCCCCCCSc1nc(NCCCN2CCOCC2)nc(SCCCCCC)n1` [S6S15 D8], with 11.5%; and `CCCCCCCCCCCCCCCSc1nc(NCCCN2CCN(C)CC2)nc(SCCCCCC)n1` [S6S15 D9], with 8.3%. With `CCCCCCCCCCCCCCCSc1nc(NCC2CCN(C)CC2)nc(SCCCCCC)n1` [S6S15 D10] the figure was 34.5%; with `CCCCCCCCCCCCCCCCSc1nc(NCCN(C)C)nc(SCCCCCC)n1` [S6S16 D1], 8.4%; with `CCCCCCCCCCCCCCCCSc1nc(NCCN2CCOCC2)nc(SCCCCCC)n1` [S6S16 D2], 24.0%.

For `CCCCCCCCCCCCCCCCSc1nc(NCCN2CCCC2)nc(SCCCCCC)n1` [S6S16 D3], the “Absolute DNA transfection efficiency” value is 9.8%. With `CCCCCCCCCCCCCCCCSc1nc(NCCN2CCCCC2)nc(SCCCCCC)n1` [S6S16 D4] the figure was 7.9%. For the compound `CCCCCCCCCCCCCCCCSc1nc(NCCN2CCN(C)CC2)nc(SCCCCCC)n1` [S6S16 D5], the “Absolute DNA transfection efficiency” value is recorded as 15.2%.

For the compound `CCCCCCCCCCCCCCCCSc1nc(NCCCN(C)C)nc(SCCCCCC)n1` [S6S16 D6], the “Absolute DNA transfection efficiency” value is given as 0.4%. Consider `CCCCCCCCCCCCCCCCSc1nc(NCCN(CC)CC)nc(SCCCCCC)n1` [S6S16 D7], for which the “Absolute DNA transfection efficiency” value stood at 3.7%.
